“Also recorded” adds a separate entry of the source.

The test system of assay [1] is ECs (HUVECs). Kind of assay: EC migration assay with peptide-presenting phages (Chemicon QCM 96-well Migration Assay). The conditions noted are these: 5 hours; for Migration of activated ECs (phages with ECs in migration chamber): 10^5 or 10^6 phages per well. It is filed as cell-based, human. How it is done: EC migration assay—EC migration was evaluated by the Chemicon QCM 96-well Migration Assay (Chemicon International, Temecula, Calif., USA) according to the manufacturer's instructions. Briefly, the kit's migration chamber comprises an insert membrane with 8 μm pores and a feeder tray containing the peptides as chemoattractants. Cell migration was evaluated by placing the cells in the migration chamber and following their migration to the bottom of the membrane.
For the migration/chemoattractant assay, ECs from passage 3 were incubated for 24 hours on gelatin-coated plates in the presence of the M199 SFM. Following trypsinization, 2×10^4 ECs were incubated for 5 hours in each of the 96 wells of the migration chamber. The peptide-presenting phages (10^5 or 10^6) were added to the feeder tray to chemoattractant the cells without being in physical contact with the cells. Cells which reached the bottom of the membrane (i.e., migratory cells) were dissociated from the membrane following the incubation with a cell detachment buffer. The migratory cells were subsequently lysed and detected by the molecular probe CyQuant GR dye which exerts green fluorescent enhancement when bound to cellular nucleic acid.
For activation migration assays, 10^5 or 10^6 peptide-presenting phages were incubated (for 5 hours) with ECs in the migration chamber. NO phages (unmodified M13 phages) served as negative control in both migration assays. Results were determined by a fluorescent ELISA reader at 480/520 nm (Fluostar BMG Lab Teck) and are presented in net values from which the control values were subtracted.

The subject of assay [2] is MVECs. Kind of assay: Tube formation assay, MVECs. The assay is classed as cell-based. The conditions noted are these: for MVEC tube formation compared to untreated cells: normoxic conditions, 10 ng/ml, matrigel. On the procedure: (§1) Tube formation assay—ECs from passage 3 or MVECs from passage 4 were harvested with trypsin and incubated for 24 hours in SFM. Twenty-four—well plates were pre-coated with 250 μl of Cultrex Basement Membrane Extract with reduced growth factors (R&D Systems, Minneapolis, Minn., USA). Five hundred microliters of medium containing 10^6 cells were transferred to the coated wells. Synthetic peptides, FGF, YR, QF, or VL were added to ECs, and VEGF, YR, QF, or VL were added to MVECs at 10 ng/ml. Plates were incubated for 24 hours at 37° C. in the presence of 5% CO2. HUVECs and MVECs were photographed under a light microscope at 20 hours and 8 hours, respectively.
(§2) Tube formation assay after and under hypoxia treatment—Tube formation assay was performed as described in Example 3, hereinabove, except that the cells were divided to 3 groups: control cells, cells after exposure to hypoxia conditions, and cells on matrigel basement that form tubes under hypoxia treatment.

Assay [3] has as its system HUVECs (ECs). Put plainly: EC (HUVEC) migration assay with synthetic peptides. The assay is classed as cell-based, human. The conditions noted are these: 5, 10, 20 and 50 ng/ml, 5 hours. How it is done: Migration assays in the presence of synthetic peptides—EC migration was evaluated as described in Example 2, hereinabove. Following typsinization, ECs (25×10^3) were incubated in migration chambers. For the chemoattactant migration assay, synthetic peptides were added to the feeder tray at 5, 10, 20, and 50 ng/ml and incubated with the cells for 5 or 15 hours. For migration activation assays, synthetic peptides at 0.1, 1, and 10 ng/ml were incubated with the cells in the migration chamber for 5 or 15 hours.
(§3) Synthetic peptides induced proliferation or migration after and under hypoxia treatment—Cell proliferation or migration assays were performed as described in Example 3, hereinabove, except that cells were divided to 3 groups: control cells, cells after exposure to hypoxia conditions or cells proliferating under hypoxia conditions. For cell proliferation assays, ECs were incubated with QF, LT and SP and MVECs were incubated with LT, SP, and YR. For cell migration assays, ECs were incubated with EBM-2 and MVECs were incubated with EBM-MV media.

Assay [4] concerns HUVECs (ECs). Put plainly: Proliferation of ECs (HUVECs) in the presence of synthetic peptides ([^3H]-Thymidine uptake). It is filed as cell-based, human. The settings on record: for Highest proliferative response of ECs, fold increase / [^3H]-Thymidine uptake in ECs: normoxia; for [^3H]-Thymidine uptake in ECs: 0.05-100 ng/ml; for [^3H]-Thymidine uptake in ECs / [^3H]-Thymidine uptake / proliferation of ECs under and following hypoxia: 24 hours. How it is done:
Proliferation of ECs in the presence of synthetic peptides—ECs were incubated in the presence of EBM-2 medium containing supplements (Cambrex BioWhittaker Cell Biology Products, Walkersville, USA). Cells were passaged every 3 days by harvesting cells with 0.25% […] (Biological Industries) and re-plating the cells at a concentration of 10^4 cells per a 25 cm^2 flask. ECs from passage 3 were used for proliferation experiments.
ECs (12×10^3 cells/well) were seeded on 24-well plates in EBM-2 medium containing supplements. Following a 24-hours incubation, cells were subjected to 24 hours of starvation in supplements-free medium (SFM). Synthetic peptides (SP, LT, TR, and VL) were each added at concentrations of 0.05, 0.1, 1, 10, or 100 ng/ml for 24 hours. For a proliferation assay, 2 μCi/well of [^3H]-Thymidine (SIGMA, Rehovot, Israel) were added for a 6-hour incubation, following which the plates were washed 3 times with PBS. For cell lysis, the plates were incubated for 15 minutes at 37° C. with 300 μl/well of 0.5 M NaOH. Subsequently, cell lysates were transferred to scintillation vials containing 2 ml of scintillation liquid (Ultima Gold, Packard Bioscience, Meriden, Conn., USA) and counted (cpm/min) in a β counter (Scintillation β Counter 1600 TR, Packard A Camberra Company, Meriden, Conn., USA).
as §3

The test system of assay [5] is HUVECs (ECs). Kind of assay: Tube formation assay, ECs (HUVECs). The assay is classed as cell-based, human. The settings on record: for EC tube formation compared to untreated cells: normoxic conditions, 10 ng/ml, matrigel. How it is done:
as §1, §2

Assay [6] concerns rat ischemic hind limb. Put plainly: Rat ischemic hind-limb model, laser-Doppler blood flow. It is filed as in vivo. The conditions noted are these: 600 μg peptide, days 2, 6, 9 and 13. How it is done:
Rat ischemic hind-limb model and laser-Doppler imager analysis—A rat ischeric hind limb model was used for evaluation of the in vivo potential of angiogenesis induced by the selected synthetic peptides. Ischemia was created in the rat left hind limb by ligation the femoral artery. The right hind limb served as a control. A day after the operation each of the peptides was injected into two sites close to the ligation and one site distal to the ligation. Each rat was treated with each of the peptides in a total amount of 600 μg.
The blood flow was measured using a Laser Doppler Blood Flow analyzer (MoorLDI, Moor Instrument, Wilmington, Del.) at 2, 6, 9 and 13 days after peptides injections. The average perfusion of each limb was computed and blood flow was expressed as the ischemic (left)/control (right) blood flow ratio.

Setting [7] is: under hypoxia conditions, 18 hours.

Take “LLADTTHHRPWT (Phage displayed peptide) [LT]”: in assay [1], the “Migration of activated ECs (phages with ECs in migration chamber)” value was “induced migration”. In assay [1] (10^6 phages per well), the “EC migration, phages as chemoattractants on feeder tray” value (“EC migration, phages” for short) is on record as “induce migration as chemoattractants”. In addition, in assay [2], the “MVEC tube formation compared to untreated cells” value is given as “did not induce tube formation”. In addition, the “EC migration, peptides as chemoattractants in feeder tray” value (shortened to “EC migration, peptides”) in assay [3] is listed as “dose-dependent induced migration”. In assay [4] (10 ng/ml), the “Increase of EC proliferation after hypoxia” value is given as 3.5 fold and the “Highest proliferative response of ECs, fold increase” value amounted to 1.7 fold. Further, in assay [4], the “[^3H]-Thymidine uptake in ECs” value is “significant dose-dependent increase”; the “[^3H]-Thymidine uptake / proliferation of ECs under and following hypoxia” value (from here on “[^3H]-Thymidine uptake / proliferation”) is “significant dose-dependent increase”. Besides, in assay [4] (under hypoxia, 1 ng/ml), the “Increase of EC proliferation under hypoxia” value came to 1.7 fold. Further, the “EC tube formation compared to untreated cells” value in assay [5] was “did not induce tube formation”.
With “QPWLEQAYYSTF (Phage displayed peptide) [QF]”, in assay [6], the “Median flux of the ischemic leg/control leg” value is recorded as 112.5%. In addition, the “Migration of activated ECs (phages with ECs in migration chamber)” value in assay [1] is “induced migration”. In assay [1] (10^6 phages per well), the “EC migration, phages” value is “induce migration as chemoattractants”. The “MVEC tube formation compared to untreated cells” value in assay [2] is given as “significant increase in tube formation”. In addition, the “[^3H]-Thymidine uptake / proliferation” value in assay [4] was “did not show increase in proliferation”. Besides, the “EC tube formation compared to untreated cells” value in assay [5] is given as “increased tube formation; also recorded: significant increase in tube formation”.
Regarding SAHGTSTGVPWP (Phage displayed peptide), in assay [1] (10^6 phages per well), the “EC migration, phages” value was “induce migration as chemoattractants”. Moreover, the “MVEC tube formation compared to untreated cells” value in assay [2] was “did not induce tube formation”. Further, in assay [2] (setting [7]), the “MVEC tube formation under hypoxia” value is reported as “effective only in tube formation under hypoxia conditions”. Also, the “EC migration, peptides” value in assay [3] was “dose-dependent induced migration”. In addition, in assay [4] (10 ng/ml), the “Increase of EC proliferation after hypoxia” value worked out at 2 fold and the “Highest proliferative response of ECs, fold increase” value was 1.6 fold. Besides, in assay [4], the “[^3H]-Thymidine uptake in ECs” value is listed as “significant dose-dependent increase”; the “[^3H]-Thymidine uptake / proliferation” value is given as “significant dose-dependent increase”. Moreover, the “EC tube formation compared to untreated cells” value in assay [5] is given as “did not induce tube formation”. Besides, in assay [5] (setting [7]), the “EC tube formation under hypoxia” value was “effective only in tube formation under hypoxia conditions”.
Take “TLPWLEESYWRP (Phage displayed peptide) [TR]”: the “EC migration, phages” value in assay [1] (10^6 phages per well) is “induce migration as chemoattractants”. The “EC migration, peptides” value in assay [3] is recorded as “smaller effect of induced migration”. Moreover, the “Highest proliferative response of ECs, fold increase” value in assay [4] (10 ng/ml) worked out at 1.8 fold. For the same sequence, the “[^3H]-Thymidine uptake in ECs” value in assay [4] is “significant dose-dependent increase”.
Consider “VPWMEPAYQRFL (Phage displayed peptide) [VL]”, for which, in assay [2], the “MVEC tube formation compared to untreated cells” value was “significant increase in tube formation”. Besides, in assay [3], the “EC migration, peptides” value was “smaller effect of induced migration”. Besides, the “Highest proliferative response of ECs, fold increase” value in assay [4] (1 ng/ml) amounted to 1.8 fold. For the same sequence, the “[^3H]-Thymidine uptake in ECs” value in assay [4] was “significant dose-dependent increase”. Besides, the “EC tube formation compared to untreated cells” value in assay [5] is “increased tube formation”.
Turning to “YPHIDSLGHWRR (Phage displayed peptide) [YR]”, the “Median flux of the ischemic leg/control leg” value in assay [6] is 108.2%. Also, the “EC migration, phages” value in assay [1] (10^5 phages per well) was “induce migration as chemoattractants”. Also, the “MVEC tube formation compared to untreated cells” value in assay [2] is given as “significant increase in tube formation”. Moreover, the “EC tube formation compared to untreated cells” value in assay [5] was “increased tube formation”.

The record behind these values is US7473682B2, “Angiogenic peptides and uses thereof” (Ramot at Tel Aviv University Ltd., priority 2003, dated 2009).
